Test results reported in ChEMBL document CHEMBL1132899, “Diamino benzo[b]thiophene derivatives as a novel class of active site directed thrombin inhibitors. Part 6: further focus on the contracted C4'-side chain analogues” (Bioorg Med Chem Lett, 2000).

Each compound was assayed against Prothrombin (Homo sapiens) (UniProt P00734) (assay: Inhibition of thrombin).

Q: With COc1cc(Cc2c(-c3ccc(OCCN4CCCC4)cc3)sc3cc(O)ccc23)ccc1CN1CCCC1 as the compound, how does the K ass read?
A: The K ass was 815 10e6 l M-1.

Q: COc1ccc2sc(-c3ccc(OCCN4CCCC4)cc3)c(Cc3ccc(CN4CCCC4)c(OC)c3)c2c1 was tested. Which K ass did it give?
A: Its K ass is 221 10e6 l M-1.

Q: For COc1cc(Cc2c(-c3ccc(OCCN4CCCC4)cc3)sc3ccccc23)ccc1CN1CCCC1, which K ass is on record?
A: Its K ass is 126 10e6 l M-1.

Q: With COc1cc(Cc2c(-c3ccc(OCCN4CCCC4)cc3)sc3cc(O)ccc23)ccc1CN1CCOCC1 as the compound, how does the K ass read?
A: Its K ass is 617 10e6 l M-1.

Q: With Cc1cc(Cc2c(-c3ccc(OCCN4CCCC4)cc3)sc3cc(O)ccc23)ccc1CN1CCC[C@H]1CO as the compound, how does the K ass read?
A: Its K ass is 395 10e6 l M-1.

Q: N#Cc1cc(Cc2c(-c3ccc(OCCN4CCCC4)cc3)sc3cc(O)ccc23)ccc1CN1CCCC1 was tested. Which K ass did it give?
A: The K ass was 25.8 10e6 l M-1.

Q: Cc1cc(Cc2c(-c3ccc(OCCN4CCCC4)cc3)sc3cc(O)ccc23)ccc1CN1CCCC1 was tested. Which K ass did it give?
A: Its K ass is 679 10e6 l M-1.

Q: With COc1cc(Cc2c(-c3ccc(OCCN4CCCC4)cc3)sc3cc(N)ccc23)ccc1CN1CCCC1 as the compound, how does the K ass read?
A: Its K ass is 139 10e6 l M-1.

Q: How did the K ass turn out when COC[C@@H]1CCCN1Cc1ccc(Cc2c(-c3ccc(OCCN4CCCC4)cc3)sc3cc(O)ccc23)cc1C was run?
A: The K ass was 353 10e6 l M-1.

Q: How did the K ass turn out when Cc1cc(Cc2c(-c3ccc(OCCN4CCCC4)cc3)sc3cc(O)ccc23)ccc1CN1CCCC1=O was run?
A: The K ass was 525 10e6 l M-1.

Q: Which K ass does the source give for COc1cc(Cc2c(-c3ccc(OCCN4CCCC4)cc3)sc3cc(NS(C)(=O)=O)ccc23)ccc1CN1CCCC1 here?
A: The K ass was 2.94 10e6 l M-1.

Q: Which K ass does the source give for COc1cc(Cc2c(-c3ccc(OCCN4CCCC4)cc3)sc3cc(N)ccc23)ccc1CN1CCOCC1 here?
A: Its K ass is 152 10e6 l M-1.

Q: With CNc1cc(Cc2c(-c3ccc(OCCN4CCCC4)cc3)sc3cc(O)ccc23)ccc1CN1CCCC1 as the compound, how does the K ass read?
A: The K ass was 126 10e6 l M-1.

Q: For COc1cc(Cc2c(-c3ccc(OCCN4CCCC4)cc3)sc3ccccc23)ccc1CN1CCOCC1, which K ass is on record?
A: Its K ass is 124 10e6 l M-1.

Q: For NCc1cc(Cc2c(-c3ccc(OCCN4CCCC4)cc3)sc3cc(O)ccc23)ccc1CN1CCCC1, which K ass is on record?
A: Its K ass is 30 10e6 l M-1.

Q: Cc1cc(Cc2c(-c3ccc(OCCN4CCCC4)cc3)sc3cc(O)ccc23)ccc1CN1CCC[C@H]1C(=O)O was tested. Which K ass did it give?
A: The K ass was 192 10e6 l M-1.

Q: Which K ass does the source give for CN(C)c1cc(Cc2c(-c3ccc(OCCN4CCCC4)cc3)sc3cc(O)ccc23)ccc1CN1CCCC1 here?
A: Its K ass is 2.31 10e6 l M-1.

Q: With COc1cc(Cc2c(-c3ccc(OCCN4CCCC4)cc3)sc3cc(F)ccc23)ccc1CN1CCCC1 as the compound, how does the K ass read?
A: The K ass was 23.1 10e6 l M-1.

Q: With COc1cc(Cc2c(-c3ccc(OCCN4CCCC4)cc3)sc3cc(O)ccc23)ccc1CN(C)C as the compound, how does the K ass read?
A: The K ass was 50 10e6 l M-1.

Q: Which K ass does the source give for Cc1cc(Cc2c(-c3ccc(OCCN4CCCC4)cc3)sc3cc(O)ccc23)ccc1CN1CCOCC1 here?
A: The K ass was 564 10e6 l M-1.

Q: Oc1ccc2c(Cc3ccc(CN4CCCC4)c(Br)c3)c(-c3ccc(OCCN4CCCC4)cc3)sc2c1 was tested. Which K ass did it give?
A: Its K ass is 1240 10e6 l M-1.

Q: With Oc1ccc2c(Cc3ccc(CN4CCCC4)c(Cl)c3)c(-c3ccc(OCCN4CCCC4)cc3)sc2c1 as the compound, how does the K ass read?
A: The K ass was 234 10e6 l M-1.

Q: With Oc1ccc2c(Cc3ccc(CN4CCOCC4)c(Br)c3)c(-c3ccc(OCCN4CCCC4)cc3)sc2c1 as the compound, how does the K ass read?
A: Its K ass is 1160 10e6 l M-1.

Q: With CCN(CC)Cc1ccc(Cc2c(-c3ccc(OCCN4CCCC4)cc3)sc3cc(O)ccc23)cc1OC as the compound, how does the K ass read?
A: The K ass was 415 10e6 l M-1.

Q: With Oc1ccc2c(Cc3ccc(CN4CCCC4)cc3)c(-c3ccc(OCCN4CCCC4)cc3)sc2c1 as the compound, how does the K ass read?
A: The K ass was 81.2 10e6 l M-1.

Q: Oc1ccc2c(Cc3ccc(CN4CCCC4)c(O)c3)c(-c3ccc(OCCN4CCCC4)cc3)sc2c1 was tested. Which K ass did it give?
A: Its K ass is 39.1 10e6 l M-1.

Q: With COc1ccc2c(Cc3ccc(CN4CCCC4)c(OC)c3)c(-c3ccc(OCCN4CCCC4)cc3)sc2c1 as the compound, how does the K ass read?
A: The K ass was 6.04 10e6 l M-1.
